The target in one series is HCV replicon. The series can be described thus: Anti-HCV replicon assay (EC50, luciferase). The settings on record: Huh-7 HCV replicon cells, 3 days, luciferase, read-out: EC50. Format: cell-based, Hepatitis C virus (HCV). The procedure: (§1) The anti HCV activity of specifically 2,4,6-trisubstituted pteridine derivatives was tested in a human hepatoma Huh-7 cell line harbouring a HCV replicon. The assay comprised the following steps:
(§2) Step 1: compound preparation and serial dilution involved the following alternatives, depending upon the water solubility of pteridine derivative being tested: • 1. with respect to water soluble 2,4,6-trisubstituted pteridine derivatives, 500 μL of solution in cell media (DMEM, 10% FBS, P/S, L-Glutamine) was prepared with a concentration that is twice the concentration of the starting final serial dilution concentration. 150 μL of the solution was added to the pre-specified wells in column 1 of a 96-well cell culture plate (PerkinElmer, white plate, cat. #6005181, for EC50 assay; black plate, cat. #6005182 for CC50 assay). The rest of the plate, i.e. columns 2-12, was filled with 100 μL of cell media. The plate was then placed on a Precision 2000 Workstation in order to start serial dilution. Pteridine compounds were diluted three times each step from column 1 to column 10. Column 11 was used as a blank control (no pteridine compound added). • 2. With respect to poorly water soluble pteridine derivatives, DMSO was used as a solvent, and serial dilution was performed in 50% DMSO in water, in a 384-well plate. A solution containing the relevant compound at 100-fold the concentration of the starting final serial dilution concentration was prepared in 50% DMSO in water and added to the pre-specified wells in column 1 of a polypropylene 384-well plate. This plate was then placed on a Precision 2000 Workstation in order to start serial dilution. After serial dilution, 2 μL of the solution was transferred from the 384-well plate to a 96-well cell culture plate containing 100 μL of cell media on a Biomek FX Workstation. The DMSO concentration in the final assay condition was 0.5% after cells have been added to the plate and the total volume in each well was brought to 200 μL. Step 2: to each well of the serial dilution plate prepared in step 1, 100 μL of cell media containing 6000 suspended Huh-7 HCV replicon cells was added with a Multidrop workstation. Plates were incubated for 3 days at 37° C. with 5% CO2. Step 3: detection: • 1) with respect to the EC50 assay, the media in a 96-well cell culture plate was aspirated with a Biotek EL405 plate-washer. A volume of 200 μL of a solution containing a 1:1 mixture of a cell-lysis buffer (commercially available from Promega, Luciferase Cell Culture Lysis 5× Reagent, cat. #E1531) and a luciferase substrate solution (commercially available from Promega, Luciferase Assay, cat. # E4550) was added to each well of the plate with Multidrop. The plate was incubated for 30 minutes at room temperature before the luminescence signal was measured with a TopCount plate-reader. • 2) with respect to the CC50 assay, 100 μL of a pre-mixed CellTiter-Glo (commercially available from Promega, cat. # G7572) solution was added directly to the cell culture in each well of the plate and the luminescence signal was measured with a TopCount plate-reader after 10 minutes of incubation at room temperature.
(§3) Results are expressed by the following data: • the 50% effective concentration (EC50), i.e. the concentration that protects 50% of the cell monolayer from virus-induced cythopathic effect, and • the 50% cytostatic concentration (CC50), i.e. the concentration that results in 50% inhibition of cell growth.

A further series relates to Huh-7 HCV replicon cells. The series can be described thus: CC50 assay (CellTiter-Glo) in Huh-7 HCV replicon cells. Format: cell-based, human. The procedure:
as §1, §2, §3
(Cellular ATP, detected with luciferase, serves as a proxy for viable cell number.)

Another series has as its system HIV IIIb strain. As to the kind of experiment: Anti-HIV assay in MT-4 cells. Format: cell-based. The settings on record: MT-4 cells infected with HIV IIIb, 5 days, CellTiter-Glo. The procedure:
The anti HIV activity of some of the pteridine compounds listed in example C was tested in MT-4 cells infected with HIV IIIb strain. The assay comprised the following steps: • Step 1 (sample preparation). The compound stock solutions as prepared for Example C were diluted in MT4 cell media at a concentration equal to twice the concentration of the HCV EC50 or CC50 (the highest concentration of the two was chosen) obtained in Example C. To pre-defined wells of a 384-well black cell culture plate (NUNC), a volume of 50 μL of the compound solution is added. Serial dilution is performed by the workstation across the plate. Each compound is serially diluted 5-fold in each step, for a total of 6 steps (7 total concentrations). Compounds are tested in triplicates within each plate. Negative control was performed using 40 μL cell media only. At the end of the serial dilution, each well on the plate contained 40 μL of media containing different concentrations of compounds. A volume of 20 μL was transferred to a new plate to duplicate the plate. • step 2 (starting the assay): the plates are transferred into the HIV laboratory. To each plate, a volume of 20 μL MT-4 cell suspension (10^5 cells/mL) is dispensed into each well of the plate with the Multidrop dispenser. The HIV IIIb stock solution was diluted 1 to 500 in cell media (2 μL of virus+998 μL of media). 100-120 μL of diluted virus was then added to 10 ml cell suspension (containing 106 MT-4 cells). 20 μL of this cell suspension/virus was dispensed to each well of the plates with the Multidrop dispenser. The plates were incubated at 37° C. for 5 days in the cell culture incubator in the HIV laboratory. • step 3 (detection): on day 5, 40 μL of the pre-prepared CellTiter-Glo reagent was added to each well of the plates using the Multidrop dispenser. The plates were incubated at room temperature for 10 minutes to stabilize the luminescence signal. The luminescence was measured on the Victor 2 plate reader with an integration time of 0.25-1 seconds per sample. […] It is clear from the table that none of the pteridine compounds tested is active against HIV.

The structures appear in SMILES notation. Where two headings read alike, the source gives them in different places.

What is called EC50 is the concentration needed to bring the measured effect to its halfway point. As usually defined, the CC50 is the concentration giving 50% cytotoxicity. The low end stands for greater toxicity to the cells, the high end for lower toxicity to the cells. Turning to `CCOc1nc(N)nc2ncc(-c3ccc(OC)c(OC)c3)nc12` [Example 134], the values for the EC50 on HCV replicon (Table 2) and in the series with HIV IIIb strain were less than 0.3 µM and more than 100 µM, respectively. Further, the CC50 in the series with Huh-7 HCV replicon cells (Table 2, 3 days) was more than 20 µM.

In the case of `COc1ccc(-c2cnc3nc(N)nc(N4CCOCC4)c3n2)cc1OC` [Example 158], the EC50 at HCV replicon (Table 2) was less than 0.3 µM; in the series with HIV IIIb strain, more than 100 µM. Also, the CC50 in the series with Huh-7 HCV replicon cells (Table 2, 3 days) was in the range of 10 to 20 µM.

Turning to `COc1ccc(-c2cnc3nc(N)nc(N4CCN(C)CC4)c3n2)cc1OC` [Example 181], the EC50 is less than 0.3 µM on HCV replicon (Table 2) and more than 100 µM in the series with HIV IIIb strain. Also, in the series with Huh-7 HCV replicon cells (Table 2, 3 days), the CC50 lay within 10 to 20 µM.

On to `CCS(=O)(=O)Nc1cccc(-c2cnc3nc(N)nc(N4CCOCC4)c3n2)c1` [Example 201], for which the EC50 on HCV replicon (Table 3) is 0.3 to 1 µM; in the series with HIV IIIb strain it was 17.8 µM. This compound came in with a CC50 in the series with Huh-7 HCV replicon cells (Table 3, 3 days) of more than 20 µM.

Turning to `CCC(=O)Nc1ccc(-c2cnc3nc(N)nc(N4CCOCC4)c3n2)cc1` [Example 216], the EC50 on HCV replicon (Table 3) is 0.3 to 1 µM; in the series with HIV IIIb strain, more than 100 µM. The same compound had a 50% cytotoxic concentration (CC50) with Huh-7 HCV replicon cells (Table 3, 3 days) of more than 20 µM.

For the origin of these results see patent US20090318456A1, “SUBSTITUTED PTERIDINES FOR THE TREATMENT AND PREVENTION OF VIRAL INFECTIONS” (Gilead Sciences, Inc., priority 2006, published 2009).
